Calls of active or inactive are those of the source. No cut-off for these calls is given here.
Tests used:
[1] = molecular target: T1, Potassium channel subfamily K member 2 (Homo sapiens) (UniProt O95069); experiment: Activation of human TREK-1 expressed in CHO cells at 10 uM in presence of ML335 by patch clamp electrophysiology method; type: cell-based; conditions: filed as activator
T1 sequence (whole entry): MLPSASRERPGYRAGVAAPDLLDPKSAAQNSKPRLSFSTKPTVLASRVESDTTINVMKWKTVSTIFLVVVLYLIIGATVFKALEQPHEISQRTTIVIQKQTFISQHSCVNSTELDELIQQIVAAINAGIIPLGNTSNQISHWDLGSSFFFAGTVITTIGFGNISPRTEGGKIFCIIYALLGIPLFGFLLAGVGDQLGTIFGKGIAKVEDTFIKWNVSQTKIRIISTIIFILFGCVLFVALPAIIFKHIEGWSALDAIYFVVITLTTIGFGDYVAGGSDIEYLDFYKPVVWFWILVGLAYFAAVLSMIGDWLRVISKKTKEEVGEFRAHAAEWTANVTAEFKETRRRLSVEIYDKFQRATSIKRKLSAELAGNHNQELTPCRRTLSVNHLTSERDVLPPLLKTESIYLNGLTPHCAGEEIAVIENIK

[2] = molecular target: T2, Potassium voltage-gated channel subfamily KQT member 4 (Homo sapiens, UniProt P56696); experiment: Agonist activity at human KCNQ4 channel expressed in CHO cells assessed as increase in outward current by patch clamp electrophysiology method; type: cell-based
T2 sequence (P56696 whole entry): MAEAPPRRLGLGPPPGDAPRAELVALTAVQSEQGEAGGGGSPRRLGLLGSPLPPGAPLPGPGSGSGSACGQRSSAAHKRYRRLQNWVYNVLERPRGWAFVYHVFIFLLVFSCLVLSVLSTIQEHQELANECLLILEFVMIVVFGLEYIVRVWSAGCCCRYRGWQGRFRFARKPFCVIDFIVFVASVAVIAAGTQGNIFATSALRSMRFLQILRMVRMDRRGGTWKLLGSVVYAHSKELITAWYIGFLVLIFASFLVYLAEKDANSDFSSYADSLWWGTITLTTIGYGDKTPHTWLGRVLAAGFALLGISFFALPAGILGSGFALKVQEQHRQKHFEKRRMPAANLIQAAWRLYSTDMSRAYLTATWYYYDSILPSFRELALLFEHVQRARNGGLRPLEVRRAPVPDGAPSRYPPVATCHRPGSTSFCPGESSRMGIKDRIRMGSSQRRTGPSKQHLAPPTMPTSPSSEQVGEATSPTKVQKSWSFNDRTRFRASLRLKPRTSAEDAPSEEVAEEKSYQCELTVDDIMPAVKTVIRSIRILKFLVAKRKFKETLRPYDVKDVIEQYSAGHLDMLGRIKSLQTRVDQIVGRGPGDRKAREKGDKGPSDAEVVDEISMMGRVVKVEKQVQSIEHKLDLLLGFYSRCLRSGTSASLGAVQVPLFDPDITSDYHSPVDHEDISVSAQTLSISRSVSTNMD

[3] = Lipophilicity, logD of the compound; type: physicochemical; conditions: octanol/water
[4] = molecular target: Potassium voltage-gated channel subfamily KQT member 5 (Homo sapiens, UniProt Q9NR82); experiment: Agonist activity at human KCNQ5 channel expressed in CHO cells assessed as increase in outward current by patch clamp electrophysiology method; type: cell-based
[5] = molecular target: Potassium voltage-gated channel subfamily KQT member 2 (Homo sapiens) (UniProt O43526); experiment: Agonist activity at human KCNQ2 expressed in CHO cells assessed as increase in outward current at 10 uM at 50 mV by patch clamp electrophysiology method; type: cell-based; conditions: filed as agonist
Sequence of Potassium voltage-gated channel subfamily KQT member 2 (Homo sapiens) (O43526 whole entry): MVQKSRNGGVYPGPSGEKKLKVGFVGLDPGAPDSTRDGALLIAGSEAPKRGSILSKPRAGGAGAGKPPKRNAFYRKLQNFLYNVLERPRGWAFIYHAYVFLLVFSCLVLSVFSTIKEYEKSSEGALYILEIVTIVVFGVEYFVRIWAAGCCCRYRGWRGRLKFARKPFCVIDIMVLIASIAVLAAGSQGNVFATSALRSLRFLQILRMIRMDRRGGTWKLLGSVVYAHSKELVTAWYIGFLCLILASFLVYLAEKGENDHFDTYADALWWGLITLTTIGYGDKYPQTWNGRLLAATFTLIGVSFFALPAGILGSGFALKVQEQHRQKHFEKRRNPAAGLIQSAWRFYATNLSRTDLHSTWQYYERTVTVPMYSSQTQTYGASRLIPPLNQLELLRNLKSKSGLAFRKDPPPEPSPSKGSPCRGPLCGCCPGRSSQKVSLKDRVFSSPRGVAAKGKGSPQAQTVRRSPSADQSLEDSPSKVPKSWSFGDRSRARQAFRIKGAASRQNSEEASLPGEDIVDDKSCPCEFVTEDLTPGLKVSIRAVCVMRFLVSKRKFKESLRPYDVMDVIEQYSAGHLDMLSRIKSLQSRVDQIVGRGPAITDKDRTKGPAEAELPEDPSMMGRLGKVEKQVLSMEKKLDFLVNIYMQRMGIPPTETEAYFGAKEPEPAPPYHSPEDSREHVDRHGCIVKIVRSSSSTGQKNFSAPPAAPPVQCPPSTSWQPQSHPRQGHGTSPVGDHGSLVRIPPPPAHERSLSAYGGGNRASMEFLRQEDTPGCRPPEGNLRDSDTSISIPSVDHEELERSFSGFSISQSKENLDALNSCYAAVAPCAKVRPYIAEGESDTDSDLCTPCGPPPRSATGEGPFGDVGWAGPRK

Sequence of Potassium voltage-gated channel subfamily KQT member 5 (Q9NR82 whole entry): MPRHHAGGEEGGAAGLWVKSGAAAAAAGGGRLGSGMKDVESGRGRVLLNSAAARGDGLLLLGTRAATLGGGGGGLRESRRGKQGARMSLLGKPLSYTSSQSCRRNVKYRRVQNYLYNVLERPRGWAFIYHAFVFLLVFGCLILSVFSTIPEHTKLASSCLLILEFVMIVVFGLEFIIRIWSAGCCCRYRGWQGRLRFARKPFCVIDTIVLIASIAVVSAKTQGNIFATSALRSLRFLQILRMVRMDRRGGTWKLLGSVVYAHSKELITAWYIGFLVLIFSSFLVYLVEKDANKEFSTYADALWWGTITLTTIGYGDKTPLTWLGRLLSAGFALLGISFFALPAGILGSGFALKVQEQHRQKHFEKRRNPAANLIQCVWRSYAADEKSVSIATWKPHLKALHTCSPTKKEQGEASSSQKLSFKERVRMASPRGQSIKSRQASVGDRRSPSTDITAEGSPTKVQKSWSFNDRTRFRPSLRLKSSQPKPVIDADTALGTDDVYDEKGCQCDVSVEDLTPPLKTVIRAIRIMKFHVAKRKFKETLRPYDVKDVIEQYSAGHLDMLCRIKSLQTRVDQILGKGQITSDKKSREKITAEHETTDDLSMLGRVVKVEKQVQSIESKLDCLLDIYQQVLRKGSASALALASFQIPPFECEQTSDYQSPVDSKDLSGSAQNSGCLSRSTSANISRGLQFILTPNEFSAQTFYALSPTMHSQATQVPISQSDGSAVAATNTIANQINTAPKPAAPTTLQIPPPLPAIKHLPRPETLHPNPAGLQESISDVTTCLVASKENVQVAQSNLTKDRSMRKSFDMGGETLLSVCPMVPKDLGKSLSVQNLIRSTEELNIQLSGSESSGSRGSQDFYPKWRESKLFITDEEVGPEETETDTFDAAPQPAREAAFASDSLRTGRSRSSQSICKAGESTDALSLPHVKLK

| SMILES | Activity [1] | logD [3] | also measured |
| --- | --- | --- | --- |
| c1ccc(-c2nnn[nH]2)c(Nc2cccc3c2CCCC3)c1 | Active |  |  |
| Cc1ccc(CSCc2nnc(SCC(=O)Nc3ccc(Br)cc3Br)n2C)cc1 |  | 4.79 | EC50 [2]: 6.4 µM; EC50 [4]: 4.5 µM |
| O=C(Nc1ccc(Cl)nc1)c1ccc(F)cc1 |  |  | Activity [5]: Active |
| Cc1ccc(CSCc2nnc(SCC(=O)Nc3ccc(Br)cc3F)n2C)cc1 |  | 4.38 |  |
| O=C(O)c1ccccc1Nc1ccc(CCc2ccc(Cl)c(Cl)c2)cc1 | Active |  |  |
| Cc1ccc(CSCc2nnc(SCC(=O)Nc3ccc(Br)cc3I)n2C)cc1 |  | 4.66 |  |

Source: ChEMBL document CHEMBL5120947, “General Pharmacological Activation Mechanism of K+ Channels Bypassing Channel Gates” (J Med Chem, 2022)
